# Test system: 653999-131-R-J2-PDC complex spheroid viability
# Assay: Anticancer human tumor 653999-131-R-J2-PDC patient-derived lung adenocarcinoma cell line growth inhibition
# Details: for IC50: curve of first compound; for viability, T/C: stronger effect = lower value
# Excerpt: Multicellular complex tumor spheroid response to LSD1 Inhibitor Iadademstat in combination with a variety of drugs and investigational agents in selected tumor cell lines
# The current study was undertaken to assess response to LSD1 inhibitors in combination with standard-of-care drugs and investigational agents in solid tumor complex spheroid models as well as in the K-562 leukemia. Complex spheroids include a stromal component modeled by human endothelial cells (HUVEC) and fibroblasts modeled by human mesenchymal stem cells (MSCs). The concentration ranges selected for each drug and investigational agent were based upon clinically achievable concentrations if the clinical Cmax of the agent was known.
# Compounds. The drugs and investigational agents used in this study are listed on Table 1. All of the agents used, including staurosporine (NSC755774) and gemcitabine (NSC613327), were obtained from the Developmental Therapeutics Program, NCI. FDA-approved anticancer drugs are available from the NCI at http://dtp.nci.nih.gov/branches/dscb/oncology_drugset_explanation.html. Drugs and investigational agents were >95% pure by proton nuclear magnetic resonance (NMR) and liquid chromatography/mass spectrometry (LC/MS). Stock solutions were prepared at 400x in DMSO, stored at -70 degrees C, and diluted in fresh medium prior to their use. The final concentration of DMSO in cell culture wells never exceeded 0.25% (v/v). The FDA-approved anticancer drug set is available from the Developmental Therapeutics Program at https://dtp.cancer.gov/organization/dscb/obtaining/available_plates.htm. All drugs and investigational agents were tested over a range starting from a high concentration at or near the clinical Cmax and decreasing in half-log increments. If the clinical Cmax for an agent had not been determined, the highest concentration tested was 10 microM.
# Cell Lines. The patient-derived cancer cell (PDC) lines: 292921-168-R-J2-PDC, K24384-001-R-PDC, and 521955-158-R2-J5-PDC pancreatic carcinomas, 556581-035-R-J1 ovarian carcinoma, 324938-238-R-J1-PDC, 855422-203-R-J1-PDC and 883617-216-R-J1-PDC urothelial bladder carcinomas, 743489-274-T-PDC renal cell carcinoma, 138582-R-J1 Merkel cell tumor, K60290-347-R-J1 and K57222-313-R-J1-PDC glioblastomas, 653999-131-R-J2-PDC, LG0703-F948-PDC, and 349418-098-R-PDC non-small cell lung carcinomas, 885512-296-R-J2-PDC, 171881-019-R-J1-PDC breast carcinomas and 186277-243-T-J2-PDC and 233499-124-R-J2-PDC colon carcinomas were obtained from the NCI Patient-Derived Models Repository (PDMR, https://pdmr.cancer.gov). The established cell lines NCI/ADR-RES (RRID:CVCL_14520 and OVCAR-5 (RRID:CVCL_1628) ovarian carcinomas, 786-O (RRID:CVCL_1051) and A498 (RRID:CVCL_A498) renal cell carcinoma, NCI-H211 (ATCC, cat. CRL-5824; RRID:CVCL_1529), NCI-H196 (ATCC, cat. CRL-5823, RRID:CVCL_1509), SW 1271 (ATCC, cat. CRL-2177, RRID:CVCL_1716) and NCI-H1876 (ATCC, cat. CRL-5902, RRID:CVCL_1503) small cell lung carcinomas, MDA-MB-231 (RRID:CVCL_0062) and MDA-MB-468 (RRID:CVCL_0419)breast carcinomas (10-12). Pooled donor human umbilical vein endothelial cells (HUVEC, Lonza, cat. CC-2519) and human mesenchymal stem cells (hMSC, Lonza, cat. PT-2501) were purchased from Lonza (Walkersville, MD).
# Cell Culture. All cells were maintained in an incubator at 37 degrees C and 5% CO2 with 95% humidity. The PDC lines were cultured according to standard operating procedures established by the NCI PDMR (https://pdmr.cancer.gov). Briefly all PDCs were thawed and cultured in Matrigel-coated flasks prepared with a working solution of 1X Ham's F-12 nutrient mix, without supplementation (Invitrogen, Waltham, MA, cat. 11765054), 100 U/mL penicillin-streptomycin (Invitrogen, cat. 15140122), and 2.5% Matrigel (Corning Inc., Corning, NY, cat. 354248) for the first three passages. […]
# 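Also: spheroids exposed to agents for seven days before readout.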
compound,measurement,setting,value
CCc1c2c(nc3ccc(O)cc13)-c1cc3c(c(=O)n1C2)COC(=O)[C@]3(O)CC + NC1CC1c1ccc(-c2cccc(O)c2)cc1,IC50,second compound 0.1 µM,< 0.949 nM
same,IC50,second compound 0.316 µM,< 0.949 nM
same,IC50,second compound 1 µM,< 0.949 nM
same,IC50,second compound 3.16 µM,< 0.949 nM
same,IC50,second compound 10 µM,< 0.949 nM
same,"viability, T/C","second compound 0.1 µM, first compound 0.000949 µM",27.2%
same,"viability, T/C","second compound 0.1 µM, first compound 0.003 µM",18%
same,"viability, T/C","second compound 0.1 µM, first compound 0.00949 µM",11.7%
same,"viability, T/C","second compound 0.1 µM, first compound 0.03 µM",5.92%
same,"viability, T/C","second compound 0.1 µM, first compound 0.0949 µM",6.24%
same,"viability, T/C","second compound 0.1 µM, first compound 0.3 µM",9.54%
same,"viability, T/C","second compound 0.316 µM, first compound 0.000949 µM",27.7%
same,"viability, T/C","second compound 0.316 µM, first compound 0.003 µM",21%
same,"viability, T/C","second compound 0.316 µM, first compound 0.00949 µM",11.2%
same,"viability, T/C","second compound 0.316 µM, first compound 0.03 µM",5.65%
same,"viability, T/C","second compound 0.316 µM, first compound 0.0949 µM",6.29%
same,"viability, T/C","second compound 0.316 µM, first compound 0.3 µM",9.28%
same,"viability, T/C","second compound 1 µM, first compound 0.000949 µM",25.6%
same,"viability, T/C","second compound 1 µM, first compound 0.003 µM",19.9%
same,"viability, T/C","second compound 1 µM, first compound 0.00949 µM",10.6%
same,"viability, T/C","second compound 1 µM, first compound 0.03 µM",5.85%
same,"viability, T/C","second compound 1 µM, first compound 0.0949 µM",6.63%
same,"viability, T/C","second compound 1 µM, first compound 0.3 µM",10.5%
same,"viability, T/C","second compound 3.16 µM, first compound 0.000949 µM",21.4%
same,"viability, T/C","second compound 3.16 µM, first compound 0.003 µM",17.2%
same,"viability, T/C","second compound 3.16 µM, first compound 0.00949 µM",10.3%
same,"viability, T/C","second compound 3.16 µM, first compound 0.03 µM",5.97%
same,"viability, T/C","second compound 3.16 µM, first compound 0.0949 µM",7.51%
same,"viability, T/C","second compound 3.16 µM, first compound 0.3 µM",9.23%
same,"viability, T/C","second compound 10 µM, first compound 0.000949 µM",23.3%
same,"viability, T/C","second compound 10 µM, first compound 0.003 µM",13.5%
same,"viability, T/C","second compound 10 µM, first compound 0.00949 µM",12.3%
same,"viability, T/C","second compound 10 µM, first compound 0.03 µM",6.19%
same,"viability, T/C","second compound 10 µM, first compound 0.0949 µM",4.83%
same,"viability, T/C","second compound 10 µM, first compound 0.3 µM",9.59%
